Assay results taken from publication PMC4747989, “Bio-conjugation of antioxidant peptide on surface-modified gold nanoparticles: a novel approach to enhance the radical scavenging property in cancer cell” (Cancer Nanotechnology, 2016).
Ends that are not written are not given here.

Assays:
Y79 cells [1] = assay: Internalization by fluorescence microscopy; format: cell-based; details: Y79 RB cells; FITC-labeled Pep-A, R6G dye-doped GNPs and GNPs-Pep-A; 4 h (method), 3 h (Fig. 5 legend)
Method: (§1) The Y79 cells were seeded on the lysine (0.01 mg/ml)-coated glass slide. The cells were cultured overnight and treated with different concentrations (50 or 100 µM) of FITC-tagged Pep-A for 4 h, for studying the localization and internalization of the peptide by fluorescence microscopy. The FITC-labeled peptide A molecules (molecular mass 771.2) were custom synthesized (CPS 1468-1, custom peptide synthesis, USV limited India) with ~95 % purity obtained by HPLC method. The GNPs and GNPs-Pep-A conjugates were doped with the R6G dye as described by Kalmodia et al., for the internalization study (Kalmodia et al. [2013]). The internalization of the peptide, R6G-doped GNPs and GNPs-Pep-A after 4 h was qualitatively detected by Zeiss LSM, 710 laser microscope supplied by Axio vision (Germany). […] Y79 cells were seeded at 2 × 10^5 cells/well in six-well plates and treated with 50 and 100 µM concentrations of Pep-A for 4 h. The cells were then spun at 1500 rpm for 5 min, washed with PBS buffer, and then resuspended in FACS buffer. The cells were then analyzed for uptake of the peptide using FACS Calibur (BD Biosciences, CA, USA) by means of CELL QUEST PRO software. The fluorescence of FITC-stained cells was excited with an argon laser at 488 nm, and the emissions were detected at 530 nm. The overlay graph and scattered plot were used to confirm the FITC positive cell population.

Y79 cells [2] = assay: Peptide uptake by flow cytometry (FACS); format: cell-based; details: 4 h; for FITC positive population in M2: Y79 RB cells, flow cytometry; for M1 population: Y79 cells, histogram statistic in text, in % (unit assumed)
Method: as §1

Y79 retinoblastoma cells = assay: Cytotoxicity (MTT) assay, Y79; format: cell-based; details: 24 and 48 h, 10-100 µM
Method: (§2) Y79 retinoblastoma and MIOM1 cells were seeded at 5 × 10^3 cells/well in 96-well plates and incubated at 37 °C overnight. The cells were then treated with varying concentrations (10, 30, 60, and 100 µM) of Pep-A and Pep-B in a fresh medium and incubated for specific time periods (24 and 48 h). At the end of the incubation, 10 µl of MTT [3-(4, 5-dimethylthiazol-2-yl)-2, 5-diphenyltetrazolium bromide; 5 mg/ml] was added to the cells with fresh medium (100 µl) and incubated at 37 °C until formazan crystals were formed. The formazan crystals were dissolved in 100 µl of DMSO, and the reading was taken at 570 nm (BioTek, ELISA, USA). Cell viability was calculated as Test OD/Control OD × 100.
Cytotoxic effects of GNPs and Pep-A were evaluated by MTT assay as per the protocol described in “Cytotoxicity assay” section. Antioxidant effects of GNPs-Pep-A, bioconjugate were evaluated by measuring the cellular ROS and SOD enzyme activity by similar methods as described in “Measurement of intracellular ROS levels on peptide treatment using 2′, 7′ dichlorodihydrofluorescein (DCF) assay” and “SOD activity measurement” sections, respectively. […] Total RNA was isolated using Trizol, and concentration of RNA was quantified using a Nanodrop (Biospec-Nano,Shimadzu, Biotech, Japan). […] Quantification of target gene expression was performed in triplicate in a 20-µl reaction mixture containing 0.1 µg of cDNA, specific primers (Table 1), and SYBR green reagent in 96-well plates on a real-time PCR system (Applied Biosystems, Singapore). GAPDH and β actin were used as internal controls, and the detection was carried out by measuring the binding of fluorescence dye SYBR green to double-stranded DNA. After cycling, relative quantitation of the tested gene cDNA against the internal control was performed using the ΔCT method. The relative amount of gene-specific mRNA to housekeeping gene was calculated using 2^−ΔΔCt, where Ct, the number of cycles at which amplification reaches a threshold, is determined using SDS software version 1.3.

[3] = tested on: MIOM1 (Muller-glial) non-neoplastic cells; assay: Cytotoxicity (MTT) assay, MIOM1; format: cell-based, human; details: 24 and 48 h, 10-100 µM
Method: as §2

internalization by fluorescence microscopy (in words) (Y79 cells [1]) | uptake into the Y79 cells (in words) (Y79 cells [2]; FACS, 50 and 100 µM) | FITC positive population in M2 (Y79 cells [2]; 50 µM FITC-tagged Pep-A, Fig. 4b) | FITC positive population in M2 (Y79 cells [2]; 100 µM FITC-tagged Pep-A, Fig. 4c) | M1 population (Y79 cells [2]; 50 µM of Pep-A, control 99.99) | M1 population (Y79 cells [2]; second mention printed as 50 µM of Pep-A) | Substance | cytotoxicity to Y79 cells (in words) (Y79 retinoblastoma cells) | cytotoxicity to Y79 cells (in words) (Y79 retinoblastoma cells; listed as pep-A) | cytotoxicity to non-cancerous MIO-M1 cells (in words) [3] | cytotoxicity to non-cancerous MIO-M1 cells (in words) ([3]; listed as pep-A)
internalization | concentration-dependent uptake | 99% | 99% | 99.97 | 99.95 | PHCKRM [Pep-A, Pro-His-Cys-Lys-Arg-Met] | no cytotoxicity | no toxicity | no cytotoxicity | no toxicity
 |  |  |  |  |  | TRNYYVRAVL [Pep-B, Thr-Arg-Asn-Tyr-Tyr-Val-Arg-Ala-Val-Leu] | no cytotoxicity |  | no cytotoxicity | 
